Measured values reported in paper PMC11681865, “Oligomerization of protein arginine methyltransferase 1 and its functional impact on substrate arginine methylation” (The Journal of Biological Chemistry, 2024).
“Also recorded” adds a separate entry of the source.

Legend:
PRMT1 [1] = target: T1, PRMT1 (Homo sapiens, UniProt Q99873); experiment: MALDI-MS methylation states of R4 peptide by PRMT1-WT; assay type: biochemical; conditions: 0.5 μM vs 1 μM PRMT1, 10 μM R4, 50 μM SAM, 30 min
T1 construct: human PRMT1 protein (amino acid residue 11–353); His6; made in house
From the text: (§1) It is known that PRMT1 can mono- and di-methylate an arginine residue on a protein or peptide substrate sequence, which results in monomethylarginine and asymmetric dimethylarginines product states. We attempted to examine whether oligomerization promotes PRMT1 ability to generate multiple methylation states in substrates. We used a synthetic peptide with four possible arginine methylation sites for PRMT1: the R4 peptide (Ac-[…]). R4 peptide, SAM, and different concentrations of PRMT1 were mixed in an aqueous buffer to allow methylation to occur, and then the mixture was subjected to MALDI-MS analysis. […] Our rationale is that, even though PRMT1-E153Q is catalytically dead, it can still interact with PRMT1-WT, resulting in hybrid higher oligomers. Therefore, presenting varying amounts of PRMT1-E153Q to a fixed concentration of PRMT1-WT would be another ideal way to test how oligomerization impacts on PRMT1 activity. […] Next, the concentration of PRMT1-WT was kept constant at 0.5 μM, but the concentration of PRMT1-E153Q was changed (Fig. 4). […] We further tested the methylation of the H4 peptide by 0.1 μM PRMT1-WT with the presence of PRMT1-E153Q.
Figure 3 Determine the methylation state of R4 peptide by PRMT1 high-order oligomers. The reaction consisted of 0 μM (A), 0.5 μM (B), 1 μM (C) of PRMT1, 10 μM R4 peptide, and 50 μM SAM for 30 min at room temperature. […]

[2] = system: PRMT1-WT / PRMT1-E153Q oligomers; experiment: MALDI-MS methylation states of R4 peptide by PRMT1-WT with added PRMT1-E153Q; assay type: biochemical, human; conditions: 0.5 μM PRMT1-WT, 0-2 μM PRMT1-E153Q
From the text: as §1
Figure 4 Determine the methylation state of R4 peptide by PRMT1 and PRMT1-E153Q oligomers formation. PRMT1 and PRMT1-E153Q was incubated on ice for 20 min before the addition of 10 μM R4 and 50 μM of SAM. […]

PRMT1-WT = target: T2, PRMT1-WT (Homo sapiens, UniProt Q99873); experiment: Radiometric P81 filter-binding assay, PRMT1-WT concentration dependence; assay type: biochemical; conditions: 50 μM peptide, 2 μM [3H]-SAM and 48 μM SAM, 30 min, room temperature, pH 8.0
T2 construct: His-MBP (N, cleaved yes); made in house; host or cells: Escherichia coli BL21 (DE3) RIPL
From the text: We used the phosphocellulose P81 filter paper–binding assay to measure the catalytic activity of PRMT1 at different concentrations on individual peptides. Each reaction mixture was composed of PRMT1-WT at varied concentrations, at fixed concentrations of SAM and peptide. The reaction mixture was quenched with isopropanol, transferred to the P81 filter paper, and washed with sodium bicarbonate buffer (pH 9). […] The measured count-per-minute (CPM) values correlated directly with the amounts of methylated peptide products. In a typical enzymatic catalysis, the product should be formed linearly as a function of enzyme concentration.
Various concentrations of PRMT1-WT were incubated with radioactive 2 μM [3H]-SAM and 48 μM SAM and 50 μM of indicated peptides for 30 min. The reaction was quenched with 100% isopropanol.
The reaction buffer consisted of 50 mM Hepes pH 8.0, 10 mM NaCl, 0.5 mM EDTA, and 0.5 mM DTT. The reaction was incubated at room temperature for 30 min after being initiated with ^3H-SAM SAM. An equal amount of 100% isopropanol to the total reaction volume was used to quench the reaction. The reaction liquid was transferred onto the phosphocellulose P81 filter paper (1.1 cm × 2 cm, Protein Chemistry & Metabolism Unit at St Vincent's Institute of Medical Research). The P81 filter papers containing the samples were left at room temperature for 30 min to airdry. […]

PRMT1 [3] = target: T1, PRMT1; experiment: Dynamic light scattering of PRMT1 oligomers; assay type: physicochemical; conditions: no denaturant, 50 mM Hepes pH 8, 10 mM NaCl, 0.5 mM EDTA, 0.5 mM DTT, 25 °C, average of three runs of 25 scans
From the text: Dynamic light scattering (DLS) uses a laser to measure the particle size distribution ([26]). The DLS can give information regarding the heterogeneity of protein in a sample ([27]). In the past, DLS was used to study microbial and viral structure ([28]). Nowadays, DLS is a popular method for studying nanoparticles, liposomes, and exosomes ([29], [30], [31], [32]). Researchers have also used DLS to study the protein folding of bovine serum albumin ([33]). Therefore, we envisage that the DLS can be utilized to analyze the size changes of PRMT1 oligomeric compositions in an aqueous solution. We expect to see an increase in size with increasing protein concentrations. The prepared PRMT1 protein at varied concentrations was allowed to incubate in the aqueous buffer for equilibrium on ice for 10 min. The protein solution was filtered with 0.2-micron filter to remove any big interfering particles. The protein size was analyzed using a Malvern Zetasizer instrument. We took an average of three runs with about 25 scans each time to evaluate the data. […] Guanidine hydrochloride is a popular protein denaturant ([34]). […] As a negative control, we incubated PRMT1 in the presence of 6 M guanidine hydrochloride to disrupt oligomer formation. […] A literature reported that guanidine thiocyanate is a stronger denaturant than guanidine hydrochloride ([35]).
Figure 2 Oligomerization of PRMT1 detection by dynamic light scattering. Various concentrations of PRMT1 were incubated on ice for 10 min, then filtered by 0.2-micron syringe filter and collected data from the DLS. The top line with black circle indicates PRMT1 without denaturant. The open triangle and hexagon lines indicated PRMT1 oligomeric structure disrupted by 6 M guanidine hydrochloride and 5 M guanidine thiocyanate, respectively.
Indicated concentrations of PRMT1 were incubated for 10 min on ice with buffer (50 mM Hepes pH 8, 10 mM NaCl, 0.5 mM EDTA, 0.5 mM DTT) and filtered through the 0.22 μm syringe filter. For the experiment to disrupt the oligomer formation, 6 M of guanidine hydrochloride or 5 M of guanidine thiocyanate was added to the reaction. The samples were injected into the 1 ml disposable cuvette and measured by Zetasizer Nano ZS (Malvern Instruments) at 25 °C. Three measurements of 25 scans each were collected to average. The data was analyzed by the Malvern Zetasizer software v7.10.

R4 peptide = experiment: MALDI-MS methylation activity of PRMT1-E153Q and PRMT1-WT on R4 peptide; assay type: biochemical; conditions: 2 μM PRMT1, 10 μM R4, 50 μM SAM, 30 min, room temperature
From the text: as §1
The reaction buffer contained 50 mM Hepes pH 8.0, 10 mM NaCl, 0.5 mM EDTA, and 0.5 mM DTT. The reaction consisted of PRMT1 at various concentrations, 10 μM of R4 (Peptide Sequence: Ac-[…]), and 50 μM of SAM. […]

T1 sequence (Q99873 11-353 isoform Q99873-3): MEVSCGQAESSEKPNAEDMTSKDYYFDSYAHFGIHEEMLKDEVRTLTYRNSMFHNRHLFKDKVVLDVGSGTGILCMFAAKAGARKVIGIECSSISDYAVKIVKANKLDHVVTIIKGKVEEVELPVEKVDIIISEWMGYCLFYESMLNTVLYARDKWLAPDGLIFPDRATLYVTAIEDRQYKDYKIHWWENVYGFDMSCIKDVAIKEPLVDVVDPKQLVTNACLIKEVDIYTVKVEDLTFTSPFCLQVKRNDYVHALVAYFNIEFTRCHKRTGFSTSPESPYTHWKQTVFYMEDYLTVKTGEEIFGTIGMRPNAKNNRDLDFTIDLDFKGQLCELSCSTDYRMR
T2 sequence (Q99873 11-353 isoform Q99873-3): as above

Row | Substance | methylation states observed (PRMT1 [1]) | R4 methylation states vs PRMT1-E153Q concentration [2] | PRMT1 enzymatic activity (CPM) vs PRMT1 concentration (PRMT1-WT) | Z-average vs PRMT1 concentration (PRMT1 [3]) | number of methylation states in R4 substrate by PRMT1-WT (R4 peptide)
1 | Ac-GGRGGFGGRGGKGGRGGFGGRGGFG [R4 peptide, synthetic peptide with four possible arginine methylation sites for PRMT1] | multimethylated by PRMT1, from monomethylation to penta-methylation and hexa-methylation; also recorded: the hexa-methylation peak was only observed at 1 μM | the amounts of all of the different methylation states increased as more and more PRMT1-E153Q protein was added; also recorded: hexa- and hepta-methylated R4 peptides appeared when PRMT1-E153Q was increased up at 2 μM | increase as higher-order oligomeric structures were formed | – | –
2 | protein arginine methyltransferase 1 [PRMT1] | – | – | – | increased gradually with the increase in PRMT1 concentration | up to six methylation states in the R4 substrate
